Values after ≈ are worked out from the molar mass of the structure shown.

What all share (type): physicochemical
Series [1] is described as follows: Hygroscopicity by dynamic vapor sorption (DVS). The following applies: for water uptake (DVS): relative humidity increased from about 0% to about 90% RH; for DVS water uptake: up to 90% RH. As for the experimental part:
Hygroscopicity was determined on a Surface Measurement Systems DVS. Typically a sample size of 5-20 mg was loaded into the DVS instrument sample pan and the sample was analyzed on a DVS automated sorption analyzer at room temperature. The relative humidity was increased from 0% to 90% RH at 10% RH step, then decreased in a similar manner to accomplish a full adsorption/desorption cycle.

A short description of series [2]: Form conversion experiments (interconversion among solid forms). The following applies: anhydrates of Compound 1. As for the experimental part: Further form conversion experiments were performed to determine interconversion among solid forms.
A short description of series [3]: physchem. The following applies: for solubility at 24 h: thermodynamic from solid. As to the method: Solubility of Form C in selected aqueous and organic solvents was determined by mixing solid with solvents at room temperature. […]
A short description of series [4]: physchem. The following applies: water, thermodynamic from solid, Approximate Solubility. As for the experimental part: In order to select the screening solvents and to determine the concentration range to be used in the screen, a quantitative solubility assessment was performed on Form B and Form C of Compound 1.

As to `O=C1CCC(N2Cc3cc(CNC(=O)C(F)(F)c4ccc(Cl)cc4)ccc3C2=O)C(=O)N1` (centres unmarked) [Form A, 2-(4-chlorophenyl)-N-((2-(2,6-dioxopiperidin-3-yl)-1-oxoisoindolin-5-yl)methyl)-2,2-difluoroacetamide], in series [1], the “water uptake (DVS)” value is “about 1.2 % w/w” and the DVS water uptake is given as roughly 1.2 wt % water.

The solubility is how much of the substance goes into solution per volume. A lower solubility goes with a poorly soluble substance. As for `O=C1CCC(N2Cc3cc(CNC(=O)C(F)(F)c4ccc(Cl)cc4)ccc3C2=O)C(=O)N1` (centres unmarked) [Form C, 2-(4-chlorophenyl)-N-((2-(2,6-dioxopiperidin-3-yl)-1-oxoisoindolin-5-yl)methyl)-2,2-difluoroacetamide], the “thermodynamic stability among the crystal forms” value in series [2] was “most thermodynamically stable anhydrate”. Moreover, in series [1], the “water uptake (DVS)” value was “about 0.6 % w/w” and the DVS water uptake is roughly 0.6 wt % water. Further, the solubility in “physchem [3]” (2 h) is 0.843 mg/mL (≈ 1830 µM). The solubility at 24 h in “physchem [3]” (pH 4, aqueous buffer) came to 1 µg/mL (≈ 2.17 µM). For the same compound, the concentration in solution in “physchem [3]” (pH 6.8, aqueous buffer) (solubility at 24 h) was 1 µg/mL (≈ 2.17 µM).

`O=C1CCC(N2Cc3cc(CNC(=O)C(F)(F)c4ccc(Cl)cc4)ccc3C2=O)C(=O)N1` (centres unmarked) [Form B, 2-(4-chlorophenyl)-N-((2-(2,6-dioxopiperidin-3-yl)-1-oxoisoindolin-5-yl)methyl)-2,2-difluoroacetamide] yielded a solubility in the series “physchem [4]” of less than 1000 µg/mL. For the same compound, in series [1], the “water uptake (DVS)” value is “about 1.4 % w/w” and the DVS water uptake is roughly 1.4 wt % water.

(Values after patent US11401257B2, “Solid forms of 2-(4-chlorophenyl)-N-((2-(2,6-dioxopiperidin-3-yl)-1-oxoisoindolin-5-yl)methyl)-2,2-difluoroacetamide, and their pharmaceutical compositions and uses” (Celgene Corporation, priority 2016, dated 2022).)
